One assay has as its target HRAS wild-type protein (Homo sapiens, UniProt P01112). As to the kind of experiment: Binding to HRAS by surface plasmon resonance (SPR), KD and KD ratio to KRAS. A digest of the protocol: (§1)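 Biotinylated GDP-bound RAS was captured at about 100–300 RU. Running buffer: HBS pH 7.4, 10 mM MgCl2, 10 µM GDP, 1 mM DTT, 0.01% Tween 20, 4% DMSO.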
The subject of assay [1] is human lung cancer strain NCI-H441. It counts as cell-based. A digest of the protocol:
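Step one: dispense the test compound in serial DMSO dilutions. Step three: add the reagent and measure […].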

The target of assay [2] is GDP-bound NRAS wild-type protein (Homo sapiens, UniProt P01111). As to the kind of experiment: Binding to NRAS by surface plasmon resonance (SPR), KD and KD ratio to KRAS. An outline of the steps: as §1
On the technique in general: In SPR one partner is held on a chip, and binding of the other changes the refractive index at the surface.

[3] abbreviates: ratio of the KD value with respect to HRAS wild-type protein to the KD value with respect to KRAS.
[4] abbreviates: ratio of the KD value with respect to GDP-bound NRAS wild-type protein to the KD value with respect to KRAS.
[5] abbreviates: ratio of KD for HRAS wild-type protein to KD for KRAS.
Where [6] appears, read: ratio of KD for GDP-bound NRAS wild-type protein to KD for KRAS.
The mark [7] stands for this setting: ratio of KD value for HRAS wild-type protein to KD value for KRAS (SPR).
[8] abbreviates: ratio of KD value for GDP-bound NRAS wild-type protein to KD value for KRAS (SPR).

Structures are written as SMILES. Where a SMILES comes first, the peptide text is derived from it. Bridges are numbered along the chain shown (N, C = ends). [ ]: non-standard residue; d: D form. The star is where a group is joined. hPhe(3,5-F2-4-CF3) = N[C@@H](CCc1cc(F)c(C(F)(F)F)c(F)c1)C(=O)O; hPhe(3-Cl-4-CF3) = N[C@@H](CCc1ccc(C(F)(F)F)c(Cl)c1)C(=O)O; NPrPhe(4-CF3) = CCCN[C@@H](Cc1ccc(C(F)(F)F)cc1)C(=O)O; NMeGly(cPent) = CN[C@H](C(=O)O)C1CCCC1; Hyp = O=C(O)[C@@H]1C[C@@H](O)CN1; NMeD = CN[C@@H](CC(=O)O)C(=O)O; NMeL = CN[C@@H](CC(C)C)C(=O)O; Iva = CC[C@](C)(N)C(=O)O; Morpholide = C1CN(*)CCO1; Ac4c = NC1(C(=O)O)CCC1; Sar = CNCC(=O)O

GDP-bound NRAS wild-type protein, sequence (P01111 whole entry): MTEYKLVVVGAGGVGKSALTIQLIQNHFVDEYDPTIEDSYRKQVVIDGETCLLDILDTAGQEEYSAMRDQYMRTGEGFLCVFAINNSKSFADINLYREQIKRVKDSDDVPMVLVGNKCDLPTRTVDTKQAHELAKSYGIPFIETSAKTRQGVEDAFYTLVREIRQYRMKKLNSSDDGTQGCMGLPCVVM
HRAS wild-type protein, sequence (P01112 whole entry): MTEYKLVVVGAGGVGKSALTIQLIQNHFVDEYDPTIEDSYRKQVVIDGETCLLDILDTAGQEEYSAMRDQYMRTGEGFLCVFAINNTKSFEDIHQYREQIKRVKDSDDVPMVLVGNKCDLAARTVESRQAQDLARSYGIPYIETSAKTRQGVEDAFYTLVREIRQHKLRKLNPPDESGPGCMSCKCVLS

Turning to `CCCN1C(=O)CN(C)C(=O)CN(C)C(=O)[C@H]([C@@H](C)CC)NC(=O)[C@H](CC(C)C)N(C)C(=O)C[C@@H](C(=O)N2CCOCC2)N(C)C(=O)[C@H](C2CCCC2)N(C)C(=O)C2(CCC2)NC(=O)[C@@H]2C[C@@H](OCC)CN2C(=O)[C@H](CCc2ccc(C(F)(F)F)c(Cl)c2)NC(=O)CN(C)C(=O)[C@@H]1Cc1ccc(C(F)(F)F)cc1` [PP0392] ([NMeL]I[Sar][Sar][NPrPhe(4-CF3)][Sar][hPhe(3-Cl-4-CF3)][Hyp](Et)[Ac4c][NMeGly(cPent)][NMeD]-Morpholide; lactam N-11), the “HRAS /KRAS” value at HRAS wild-type protein (setting [3]) was “C (A compound having a KD ratio of 0.1 or more and less than 3 is denoted as C)”. For the same molecule, inhibition in assay [1] was half-maximal at 0.9 nM (IC50). The “NRAS /KRAS” value in assay [2] (setting [4]) was “B (a compound having 3 or more and less than 10 is denoted as B)”.

For `CCC(CC)[C@H]1C(=O)N(C)[C@H](C(=O)N(C)C)CC(=O)N(C)[C@@H](COC)C(=O)N[C@@H]([C@@H](C)CC)C(=O)N(C)CC(=O)N(C)[C@H]2C/C=C\CCN(C2=O)[C@@H](Cc2ccc(C(F)(F)F)cc2)C(=O)N(C)CC(=O)N[C@@H](CCc2cc(F)c(C(F)(F)F)c(F)c2)C(=O)N2CCOC[C@H]2C(=O)NC2(CC(C)(C)C2)C(=O)N1C` [PP2917], on HRAS wild-type protein (setting [5]), the “HRAS /KRAS” value was “A (a compound having 10 or more and less than 20 is denoted as A)”. Moreover, 130 nM corresponded to half-maximal inhibition in assay [1] (IC50). Moreover, the “NRAS /KRAS” value in assay [2] (setting [6]) is on record as “AA (a compound having 20 or more is denoted as AA)”.

With `CC[C@H](C)[C@@H]1NC(=O)[C@H](CC(C)C)N(C)C(=O)C[C@@H](C(=O)N(C)C)N(C)C(=O)[C@H](C2CCCC2)N(C)C(=O)C2(CCC2)NC(=O)[C@@H]2C[C@@H](C)CN2C(=O)[C@H](CCc2ccc(C(F)(F)F)c(OC)c2)NC(=O)CN(C)C(=O)[C@H](Cc2ccc(C)cc2)N2CC/C=C\C[C@@H](C2=O)N(C)C(=O)CN(C)C1=O` [PP1867], the “HRAS /KRAS” value at HRAS wild-type protein (setting [7]) is “B (a compound having 3 or more and less than 10 is denoted as B)”. Inhibition in assay [1] was half-maximal at 47.8 nM (IC50). Further, the “NRAS /KRAS” value in assay [2] (setting [8]) is “A (a compound having 10 or more and less than 20 is denoted as A)”.

Regarding `CCO[C@@H]1C[C@H]2C(=O)NC3(CCC3)C(=O)N(C)[C@@H](C3CCCC3)C(=O)N(C)[C@H](C(=O)N(C)CCOC)CC(=O)N(C)[C@@H](CC(C)C)C(=O)N[C@@H]([C@@H](C)CC)C(=O)N(C)CC(=O)N(C)[C@H]3C/C=C\CCN(C3=O)[C@@H](Cc3ccc(C(F)(F)F)cc3)C(=O)N(C)CC(=O)N[C@@H](CCc3ccc(C(F)(F)F)c(OC)c3)C(=O)N2C1` [PP1324], the “HRAS /KRAS” value at HRAS wild-type protein (ratio of KD with respect to HRAS wild-type protein to KD with respect to KRAS) is “A (a compound having 10 or more and less than 20 is denoted as A)”. Moreover, in assay [1], the half-inhibitory concentration (IC50) – broadly, the midpoint of a concentration-inhibition curve – was found to be 4.4 nM. Besides, the “NRAS /KRAS” value in assay [2] (ratio of KD with respect to GDP-bound NRAS wild-type protein to KD with respect to KRAS) is “A (a compound having 10 or more and less than 20 is denoted as A)”.

As to `CC[C@H](C)[C@@H]1NC(=O)[C@H](CC(C)C)N(C)C(=O)C[C@@H](C(=O)N2CCCCC2)N(C)C(=O)[C@H](C2CCCC2)N(C)C(=O)C2(CCCC2)NC(=O)[C@@H]2CCCN2C(=O)[C@H](CCc2cc(F)c(C(F)(F)F)c(F)c2)NC(=O)CN(C)C(=O)[C@H](Cc2ccc(C(F)(F)F)cc2)N2CCCC[C@@H](C2=O)N(C)C(=O)CN(C)C1=O` [PP0572], at HRAS wild-type protein (setting [3]), the “HRAS /KRAS” value was “B (a compound having 3 or more and less than 10 is denoted as B)”. The IC50 in assay [1] amounted to 9 nM. For the same molecule, the “NRAS /KRAS” value in assay [2] (setting [4]) was “B (a compound having 3 or more and less than 10 is denoted as B)”.

In the case of `CC[C@H](C)[C@@H]1NC(=O)[C@H](CC2CC2)N(C)C(=O)C[C@@H](C(=O)N(C)C)N(C)C(=O)[C@H](C2CCCC2)N(C)C(=O)C2(CCC2)NC(=O)[C@@H]2[C@@H](OCC(F)F)CCN2C(=O)[C@H](CCc2cc(F)c(C(F)(F)F)c(F)c2)NC(=O)CN(C)C(=O)[C@H](Cc2ccc(C(F)(F)F)cc2)N2CC/C=C\C[C@@H](C2=O)N(C)C(=O)CN(C)C1=O` [PP1533], the “HRAS /KRAS” value on HRAS wild-type protein (setting [7]) is “A (a compound having 10 or more and less than 20 is denoted as A)”. The molecule also gave an IC50 in assay [1] of 23.8 nM. Also, the “NRAS /KRAS” value in assay [2] (setting [8]) is “AA (a compound having 20 or more is denoted as AA)”.

As to `CCCN1C(=O)CN(C)C(=O)CN(C)C(=O)[C@H]([C@@H](C)CC)NC(=O)[C@H](CC(C)C)N(C)C(=O)C[C@@H](C(=O)N2CCOCC2)N(C)C(=O)[C@H](C2CCCC2)N(C)C(=O)[C@](C)(CC)NC(=O)[C@@H]2CCCN2C(=O)[C@H](CCc2cc(F)c(C(F)(F)F)c(F)c2)NC(=O)CN(C)C(=O)[C@@H]1Cc1ccc(C(F)(F)F)cc1` [PP0754] ([NMeL]I[Sar][Sar][NPrPhe(4-CF3)][Sar][hPhe(3,5-F2-4-CF3)]P[Iva][NMeGly(cPent)][NMeD]-Morpholide; lactam N-11), the “HRAS /KRAS” value on HRAS wild-type protein (setting [3]) is “C (A compound having a KD ratio of 0.1 or more and less than 3 is denoted as C)”. This molecule returned an IC50 in assay [1] of 40.4 nM. In addition, in assay [2] (setting [4]), the “NRAS /KRAS” value was “B (a compound having 3 or more and less than 10 is denoted as B)”.

For `CCO[C@@H]1C[C@H]2C(=O)NC3(CCC3)C(=O)N(C)[C@@H](C3CCCC3)C(=O)N(C)[C@H](C(=O)N(C)C)CC(=O)N(C)C[C@@H](C)C(=O)N[C@@H]([C@@H](C)CC)C(=O)N(C)CC(=O)N(C)[C@H]3CCCCN(C3=O)[C@@H](Cc3ccc(C(F)(F)F)cc3)C(=O)N(C)CC(=O)N[C@@H](CCc3cc(F)c(C(F)(F)F)c(F)c3)C(=O)N2C1` [PP0706], the “HRAS /KRAS” value at HRAS wild-type protein (setting [3]) was “B (a compound having 3 or more and less than 10 is denoted as B)”. This molecule came in with an IC50 in assay [1] of 5390 nM. Moreover, in assay [2] (setting [4]), the “NRAS /KRAS” value was “B (a compound having 3 or more and less than 10 is denoted as B)”.

For the molecule `CCCC[C@H]1C(=O)N[C@@H]([C@@H](C)CC)C(=O)N(C)CC(=O)N(C)[C@H]2C/C=C\CCN(C2=O)[C@@H](Cc2ccc(C(F)(F)F)cc2)C(=O)N(C)CC(=O)N[C@@H](CCc2cc(F)c(C(F)(F)F)c(F)c2)C(=O)N2C[C@H](OCC)C[C@H]2C(=O)NC2(CCC2)C(=O)N(C)[C@@H](C2CCCC2)C(=O)N(C)[C@H](C(=O)N(C)CCC)CC(=O)N1C` [PP1704], the “HRAS /KRAS” value on HRAS wild-type protein (setting [7]) is “A (a compound having 10 or more and less than 20 is denoted as A)”. The molecule further came in with an IC50 in assay [1] of 10.3 nM. The “NRAS /KRAS” value in assay [2] (setting [8]) was “A (a compound having 10 or more and less than 20 is denoted as A)”.

As to `CCCN1C(=O)CN(C)C(=O)CN(C)C(=O)[C@H]([C@@H](C)CC)NC(=O)[C@H](CC(C)C)N(C)C(=O)C[C@@H](C(=O)N2CCOCC2)NC(=O)[C@H](C2CCCC2)N(C)C(=O)C2(CCC2)NC(=O)[C@@H]2CCCN2C(=O)[C@H](CCc2ccc(C(F)(F)F)c(Cl)c2)NC(=O)CN(C)C(=O)[C@@H]1Cc1ccc(C(F)(F)F)cc1` [PP0320] ([NMeL]I[Sar][Sar][NPrPhe(4-CF3)][Sar][hPhe(3-Cl-4-CF3)]P[Ac4c][NMeGly(cPent)]D-Morpholide; lactam N-11), at HRAS wild-type protein (setting [5]), the “HRAS /KRAS” value was “B (a compound having 3 or more and less than 10 is denoted as B)”. For the same molecule, in assay [1], half-maximal inhibition (IC50) was put at 92.3 nM. Further, the “NRAS /KRAS” value in assay [2] (setting [6]) was “B (a compound having 3 or more and less than 10 is denoted as B)”.

For the molecule `CCCN(C)C(=O)[C@@H]1CC(=O)N(C)[C@@H](C2CCC2)C(=O)N[C@@H]([C@@H](C)CC)C(=O)N(C)CC(=O)N(C)[C@H]2C/C=C\CCN(C2=O)[C@@H](Cc2ccc(C(F)(F)F)cc2)C(=O)N(C)CC(=O)N[C@@H](CCc2cc(F)c(C(F)(F)F)c(F)c2)C(=O)N2C[C@@H](C)C[C@H]2C(=O)NC2(CCC2)C(=O)N(C)[C@@H](C2CCCC2)C(=O)N1C` [PP2083], the “HRAS /KRAS” value at HRAS wild-type protein (setting [3]) is “B (a compound having 3 or more and less than 10 is denoted as B)”. The IC50 in assay [1] turned out to be 10.3 nM. Also, the “NRAS /KRAS” value in assay [2] (setting [4]) is “A (a compound having 10 or more and less than 20 is denoted as A)”.
